What was measured:
Aβ generation = experiment: Aβ ELISA, transgenic APPsw mouse-derived primary neuronal cells (Example 1); type: cell-based; conditions: 20 μM, FIG. 1B
Description: Aβ1-40 and 1-42 peptides were analyzed in the conditioned media from SweAPP N2a cells (FIGS. 1A, 1C, 1D) and transgenic APPsw mouse-derived primary neuronal cells (FIG. 1B) by ELISA (n=3 for each condition).
TAPI-1, β and γ-secretase inhibitors were obtained from Calbiochem (San Diego, Calif.). Green tea extract (75% polyphenols) was obtained from the Vitamin Shoppe™ (North Bergen, N.J.).
Cultured cells were lysed in ice-cold-lysis buffer (20 mM Tris, pH 7.5, 150 mM NaCl, 1 mM EDTA, 1 mM EGTA, 1% v/v Triton X-100, 2.5 mM sodium pyropgosphate, 1 mM β-glycerolphosphate, 1 mM Na3VO4, 1 μg/mL leupeptin, 1 mM PMSF) as previously described (Tan et al., 2002). Mouse brains were isolated under sterile conditions on ice and placed in ice-cold lysis buffer. […] Total Aβ1-42 species were detected by acid extraction of brain homogenates in 5 M guanidine buffer (ret), followed by a 1:10 dilution in lysis buffer. Soluble Aβ1-42 was directly detected in cultured cell lysates or brain homogenates prepared with lysis buffer described above by a 1:4 or 1:10 dilution, respectively. Aβ1-42 was quantified in these samples using the Aβ1-42 ELISA kit (BioSource, Camarillo, Calif.) in accordance with the manufacturer's instructions, except that standards included a 0.5 M guanidine buffer. […]

ADAM10 [1] = experiment: Western blot of ADAM10 maturation in primary murine neuronal cultures; type: cell-based; conditions: various doses, 8 h
Description: (§1) Cultured cells were lysed in ice-cold lysis buffer described above, and an aliquot corresponding to 50 μg of total protein was electrophoretically separated using 16.5% Tris-tricine gels. Electrophoresed proteins were then transferred to PVDF membranes (Bio-Rad, Richmond, Calif.), washed in ddH2O, and blocked for 1 h at ambient temperature in Tris-buffered saline (TBS; Bio-Rad) containing 5% (w/v) non-fat dry milk. After blocking, membranes were hybridized for 1 h at ambient temperature with various primary antibodies. Membranes were then washed 3 times for 5 min each in ddH2O and incubated for 1 h at ambient temperature with the appropriate HRP-conjugated secondary antibody (1:1,000, Pierce Biotechnology, Inc. Rockford, Ill.). All antibodies were diluted in TBS containing 5% (w/v) of non-fat dry milk. Blots were developed using the luminol reagent (Pierce Biotechnology). Densitometric analysis was done using the Fluor-S MultiImager™ with Quantity One™ software (Bio-Rad). […] Antibodies used for Western blot included: antibody 369 (which recognizes the carboxyl-terminus of APP; 1:1,500), clone 22C11 (against the amino-terminus of APP; 1:1,500), clone 6E10 (against amino acids 1-17 of Aβ; 1:1,500), anti-ADAM9 (1:500), and antibodies against ADAM10 (1:500), ADAM17 (1:500) or actin (1:1,500; as an internal reference control). […]

transgenic APPsw mice = experiment: EGCG IP treatment of transgenic APPsw mice (brain Aβ, APP fragments, secretase activity, plaques); type: in vivo, mouse
Description: Soluble Aβ (FIG. 4B) and insoluble Aβ prepared with 5 M guanidine (FIG. 4C) were analyzed by ELISA. Data are represented as mean+/−SEM of Aβ (pg/mg protein). […] (FIG. 4D) α-, β- and γ-secretase cleavage activities were analyzed by secretase cleavage activity kits. Data are presented as mean+/−SEM of fluorescence units/mg protein. […] (FIG. 4E) Mouse brain paraffin sections stained with anti-human Aβ antibody (4G8); left control PBS-treated mice. […] Top, cingulated cortex (CC); Middle, hippocampus (H); Bottom, entorhinal cortex (EC). […] (FIG. 4F) illustrates bar graphs comparing the Aβ burden (%) for transgenic APPsw mice treated with two different compounds.
Cultured cells were lysed in ice-cold-lysis buffer (20 mM Tris, pH 7.5, 150 mM NaCl, 1 mM EDTA, 1 mM EGTA, 1% v/v Triton X-100, 2.5 mM sodium pyropgosphate, 1 mM β-glycerolphosphate, 1 mM Na3VO4, 1 μg/mL leupeptin, 1 mM PMSF) as previously described (Tan et al., 2002). Mouse brains were isolated under sterile conditions on ice and placed in ice-cold lysis buffer. Brains were then sonicated on ice for approximately 3 min, allowed to stand for 15 min at 4° C., and centrifuged at 15,000 rpm for 15 min. Total Aβ1-42 species were detected by acid extraction of brain homogenates in 5 M guanidine buffer (ret), followed by a 1:10 dilution in lysis buffer. Soluble Aβ1-42 was directly detected in cultured cell lysates or brain homogenates prepared with lysis buffer described above by a 1:4 or 1:10 dilution, respectively. Aβ1-42 was quantified in these samples using the Aβ1-42 ELISA kit (BioSource, Camarillo, Calif.) in accordance with the manufacturer's instructions, except that standards included a 0.5 M guanidine buffer.
Cultured cells and mouse brain were lysed in ice-cold lysis buffer described above, and an aliquot corresponding to 50 μg of total protein was electrophoretically separated using 16.5% Tris-tricine gels. Electrophoresed proteins were then transferred to PVDF membranes (Bio-Rad), washed in dH2O, and blocked for 1 hour at ambient temperature in Tris-buffered saline (TBS; Bio-Rad) containing 5% (w/v) for non-fat dry milk. After blocking, membranes were hybridized for 1 hour at ambient temperature with various antibodies, including against the C- (369), N-terminus of APP (22C11), the N-terminus of Aβ (6E10), and ADAM10 and TACE (Calbiochem). Membranes were then washed 3× for 5 min each in dH2O and incubated for 1 hour at ambient temperature with the appropriate HRP-conjugated secondary antibody (1:1,000, Pierce Biotechnology, Inc. Rockford, Ill.). All antibodies were diluted in TBS containing 5% (w/v) of non-fat dry milk. Blots were developed using the luminal reagent (Pierce Biotechnology). Densitometric analysis was done using the Fluor-S Multimager™ with Quantity One™ software (Bio-Rad). Immunoprecipitation was performed for detection of sAPP-α, sAPP-β and Aβ by incubating 200 μg of total protein of each sample with 6E10 (1:100; Signet) or 22C11 (1:100; Roche, Basel, Switzerland) overnight with gentle rocking at 4° C., and 10 μL of 50% protein A-Sepharose beads were then added to the sample (1:10; Sigma) prior to gentle rocking for an additional 4 hours at 4° C. Following washes with 1× cell lysis buffer, samples were subjected to Western blot as described above. Antibodies used for Western blot included antibody 369 (1:1,000), anti-C-terminal APP antibody (1:500; Chemicon, Temecula, Calif.), BAM-10 (1:1,000; Sigma), 6E10 (1:1,000; Signet) or anti-Actin antibody (1:1,500; as an internal reference control; Roche). α-, β- and γ-secretase activities were quantified in cell lysates and mouse brain homogenates using available kits based on secretase-specific peptides conjugated to fluorogenic receptor molecules (R&D Systems, Minneapolis, Minn.).

ADAM10 [2] = experiment: Western blot of ADAM10 maturation in primary murine microglial cultures; type: cell-based; conditions: various doses, 8 h
Description: as §1

[3] = IP 20 mg/kg daily for 60 days, ELISA

## O=C(O[C@@H]1Cc2c(O)cc(O)cc2O[C@@H]1c1cc(O)c(O)c(O)c1)c1cc(O)c(O)c(O)c1 [EGCG, (−)-epigallocatechin-3-gallate]
Aβ generation
  reduction of Aβ1-42 generation over control (PBS): 40%
ADAM10 [1]
  mature ADAM10: dose-dependent increases
Transgenic APPsw mice; IP 20 mg/kg daily for 60 days
  elevation of α-secretase cleavage activity in brain: 28%
  sAPP-α in brain versus PBS: markedly increased
  α-CTF in brain versus PBS: markedly increased
Transgenic APPsw mice; [3]
  reduction of soluble Aβ1-42 level in brain: ~50%
  reduction of total Aβ1-42 level in brain: ~25%
Transgenic APPsw mice; IP, 14 months of age, across the three brain regions examined
  reduction of 4G8 immunoreactive and thioflavin S positive Aβ deposits: 32-36%
Transgenic APPsw mice; IP, ELISA, FIG. 4C
  decrease of insoluble 5 M guanidine-prepared Aβ levels: approximately 26%
Transgenic APPsw mice; in vivo, FIG. 4d
  activity of β-secretase cleavage in brain: not decreases
ADAM10 [2]
  mature ADAM10: dose-dependent increases
